Results on 1 compound are retold here after paper PMC6142817, “New Urea Derivatives Are Effective Anti-senescence Compounds Acting Most Likely via a Cytokinin-Independent Mechanism” (Frontiers in Plant Science, 2018).

Assay [1] concerns the target T1, Arabidopsis thaliana cytokinin oxidase/dehydrogenase 2 (AtCKX2) (Arabidopsis thaliana, UniProt Q9FUJ3).
T1 construct: made in house; host or cells: Saccharomyces cerevisiae strain 23344c ura-, plasmid pYES2-AtCKX2; cell-free growth medium used directly
T1 sequence (Q9FUJ3 23-501): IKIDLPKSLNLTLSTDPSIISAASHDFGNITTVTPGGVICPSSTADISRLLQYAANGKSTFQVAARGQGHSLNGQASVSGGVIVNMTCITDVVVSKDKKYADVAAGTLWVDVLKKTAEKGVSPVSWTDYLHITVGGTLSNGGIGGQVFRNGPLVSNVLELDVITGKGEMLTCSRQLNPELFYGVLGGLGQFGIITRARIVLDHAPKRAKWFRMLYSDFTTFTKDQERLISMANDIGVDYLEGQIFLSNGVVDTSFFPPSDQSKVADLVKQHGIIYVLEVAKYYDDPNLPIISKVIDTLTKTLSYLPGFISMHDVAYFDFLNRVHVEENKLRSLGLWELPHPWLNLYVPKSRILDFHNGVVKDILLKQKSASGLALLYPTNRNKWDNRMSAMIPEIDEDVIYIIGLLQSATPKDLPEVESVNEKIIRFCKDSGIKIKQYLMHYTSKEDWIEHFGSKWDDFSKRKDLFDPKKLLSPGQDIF
As to the kind of experiment: AtCKX2 inhibition assay (PMS/MTT). Format: biochemical. To be noted: PMS/MTT kinetic assay. As to the method:
The method based on the coupled redox reaction of phenazine methosulfate and 3-(4,5-dimethylthiazol-2-yl)-2,5-diphenyltetrazolium bromide resulting in the formation of a formazan dye was used to test the ability of the synthesized compounds to inhibit AtCKX2. The assay was performed as described previously (Frébort et al., [2002]). Cell-free growth medium of Saccharomyces cerevisiae strain 23344c ura- harboring the plasmid pYES2- AtCKX2 was used directly as a source of AtCKX2 (Frébortová et al., [2007]).
(Formazan colour is commonly taken as a measure of viable cells.)

The next assay deals with CRE1/AHK4 (Arabidopsis thaliana, UniProt Q9C5U0). As to the kind of experiment: Cytokinin receptor activation assay in E. coli (CRE1/AHK4). Format: cell-based. The arrangement: expressed in transfected cells; host or cells: Escherichia coli strain KMI001, plasmid pIN-IIIAHK4. To be noted: E. coli bacterial receptor assay. The source says:
The activity of this enzyme is finally measured in the assay and corresponds to the ability of the tested compound to activate this cytokinin receptor. Both assays were done at least twice and the presented graphs are the most representative examples.

CRE1/AHK4, sequence (Q9C5U0 whole entry): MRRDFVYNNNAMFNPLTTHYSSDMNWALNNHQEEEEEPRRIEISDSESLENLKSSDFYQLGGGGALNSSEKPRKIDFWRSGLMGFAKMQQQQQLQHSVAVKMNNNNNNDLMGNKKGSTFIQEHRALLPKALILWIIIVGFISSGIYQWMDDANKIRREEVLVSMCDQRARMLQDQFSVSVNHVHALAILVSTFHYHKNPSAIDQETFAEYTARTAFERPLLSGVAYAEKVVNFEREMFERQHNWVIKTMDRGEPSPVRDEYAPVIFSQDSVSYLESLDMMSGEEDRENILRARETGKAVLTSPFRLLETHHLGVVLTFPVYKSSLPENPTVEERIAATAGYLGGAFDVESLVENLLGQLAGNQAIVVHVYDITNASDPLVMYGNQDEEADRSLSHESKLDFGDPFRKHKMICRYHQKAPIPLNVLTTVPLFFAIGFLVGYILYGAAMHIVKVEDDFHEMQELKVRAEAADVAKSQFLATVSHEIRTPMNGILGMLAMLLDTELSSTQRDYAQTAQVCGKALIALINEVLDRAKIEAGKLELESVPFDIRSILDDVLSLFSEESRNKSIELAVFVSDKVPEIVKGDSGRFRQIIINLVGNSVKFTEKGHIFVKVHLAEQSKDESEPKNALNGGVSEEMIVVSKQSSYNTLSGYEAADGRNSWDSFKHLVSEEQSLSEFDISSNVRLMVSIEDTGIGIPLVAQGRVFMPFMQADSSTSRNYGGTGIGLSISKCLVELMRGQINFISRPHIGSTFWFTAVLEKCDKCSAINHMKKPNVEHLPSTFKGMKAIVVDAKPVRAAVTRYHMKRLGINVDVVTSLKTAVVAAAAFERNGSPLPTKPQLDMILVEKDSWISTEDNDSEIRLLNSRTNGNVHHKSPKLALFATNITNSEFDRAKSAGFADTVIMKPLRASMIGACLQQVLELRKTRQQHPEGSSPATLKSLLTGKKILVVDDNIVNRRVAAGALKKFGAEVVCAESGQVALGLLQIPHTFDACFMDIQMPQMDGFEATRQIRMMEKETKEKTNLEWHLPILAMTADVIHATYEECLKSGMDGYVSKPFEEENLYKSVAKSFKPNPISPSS

With `COCCNC(=O)Nc1cnns1` [ASES, 1-(2-methoxy-ethyl)-3-1,2,3-thiadiazol-5-yl-urea], the “inhibition of AtCKX2” value in assay [1] is reported as “neither ASES nor any of the other synthesized substances inhibited AtCKX2”. For the same compound, the “ability to activate the CRE1/AHK4 receptor” value at CRE1/AHK4 is reported as “No other derivative from the series, including ASES, was able to activate”.
